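All cell lines were grown in 96-well plates and treated with compound for 48 hours. Here, GI50 denotes the concentration required for 50% inhibition of growth.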 The source made the active and inactive calls. Cut-off read from the data, not from the text of the source: active = GI50 up to about 1.1 µM and inactive = higher.
Assays:
Experiment in all cases: NCI tumour cell line growth inhibition, 48 h
IGROV-1 = tested on: IGROV-1
MDA-MB-435 = tested on: MDA-MB-435
NCI-H23 = tested on: NCI-H23
A549 = tested on: A549
SF-295 = tested on: SF-295
SK-MEL-2 = tested on: SK-MEL-2
RPMI-8226 = tested on: RPMI-8226
OVCAR-3 = tested on: OVCAR-3
EKVX = tested on: EKVX
SK-MEL-28 = tested on: SK-MEL-28
SNB-19 = tested on: SNB-19
U-251 = tested on: U-251
A498 = tested on: A498
Malme-3M = tested on: Malme-3M
M14 = tested on: M14
ACHN = tested on: ACHN
OVCAR-5 = tested on: OVCAR-5
LOX IMVI = tested on: LOX IMVI
T47D = tested on: T47D
MOLT-4 = tested on: MOLT-4

Measured: GI50

COC(=O)[C@]12CSC[C@H]1C[C@H](c1ccccc1OC)N2
inactive: IGROV-1 85.9 µM | MDA-MB-435 > 100 µM | NCI-H23 > 100 µM | A549 > 100 µM | SF-295 > 100 µM | SK-MEL-2 > 100 µM | RPMI-8226 > 100 µM | OVCAR-3 > 100 µM | EKVX > 100 µM | SK-MEL-28 > 100 µM | SNB-19 > 100 µM | U-251 > 100 µM | A498 > 100 µM | Malme-3M > 100 µM | M14 > 100 µM | ACHN > 100 µM | OVCAR-5 > 100 µM | LOX IMVI > 100 µM | T47D > 100 µM | MOLT-4 > 100 µM

NC(Cc1ccc2oc3cc(=O)c4ccccc4c-3nc2c1)C(=O)O (stereo not given)
inactive: IGROV-1 68.2 µM | MDA-MB-435 4.4 µM | NCI-H23 4.31 µM | A549 16.7 µM | SF-295 22.3 µM | SK-MEL-2 22.6 µM | RPMI-8226 42.2 µM | OVCAR-3 19.6 µM | EKVX > 83.4 µM | SK-MEL-28 25.8 µM | SNB-19 22.3 µM | U-251 26.2 µM | A498 70.6 µM | Malme-3M 6.52 µM | M14 12.5 µM | ACHN 55.7 µM | OVCAR-5 66.7 µM | LOX IMVI 13.4 µM | T47D 38.5 µM | MOLT-4 41.1 µM

O=NN(Cc1ccc(Cl)cc1)C(C(=O)O)c1ccccc1 (stereo not given)
inactive: IGROV-1 > 100 µM | MDA-MB-435 > 100 µM | NCI-H23 > 100 µM | A549 > 100 µM | SF-295 > 100 µM | SK-MEL-2 > 100 µM | RPMI-8226 > 100 µM | OVCAR-3 > 100 µM | EKVX > 100 µM | SK-MEL-28 > 100 µM | SNB-19 > 100 µM | U-251 > 100 µM | A498 > 100 µM | Malme-3M > 100 µM | M14 > 100 µM | ACHN > 100 µM | OVCAR-5 > 100 µM | LOX IMVI > 100 µM | T47D > 100 µM | MOLT-4 > 100 µM

O=C(/C=C/c1ccccc1)C[C@@H](O)C[C@@H]1CC=CC(=O)O1
inactive: IGROV-1 6.85 µM | MDA-MB-435 4.86 µM | NCI-H23 8.95 µM | A549 18.7 µM | SF-295 13.7 µM | SK-MEL-2 14.2 µM | RPMI-8226 2.61 µM | OVCAR-3 3.75 µM | EKVX 17.1 µM | SK-MEL-28 11.5 µM | SNB-19 15.9 µM | U-251 8.69 µM | A498 16.7 µM | Malme-3M 14.2 µM | M14 5.81 µM | ACHN 12.7 µM | OVCAR-5 20 µM | LOX IMVI 1.95 µM | T47D 10.6 µM | MOLT-4 2.65 µM

— ChEMBL document CHEMBL1201862, “PubChem BioAssay data set” (2004)
